# Biological target: Peptidyl-prolyl cis-trans isomerase A (Homo sapiens) (UniProt P62937)
# Test: Permeation ratio of cell-free CyP binding to intracellular CyP binding
# Format: cell-based
# Peptidyl-prolyl cis-trans isomerase A (Homo sapiens), sequence (P62937 whole entry, looked up): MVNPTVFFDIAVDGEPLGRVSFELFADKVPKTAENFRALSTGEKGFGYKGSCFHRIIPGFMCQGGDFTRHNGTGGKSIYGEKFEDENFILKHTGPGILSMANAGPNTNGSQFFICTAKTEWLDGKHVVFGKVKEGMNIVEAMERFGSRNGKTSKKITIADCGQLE
row,Ratio,SMILES
1,65,CC[C@H]1C[C@H](C)[C@@]2(NC1=O)O[C@@H](C[C@H](O)[C@@H](C)CCCCCC(C)[C@@H]1CCCCC[C@H](O)[C@H](C)[C@@H](O)[C@@H](CCC(C)=O)C(=O)N[C@@H](C(C)C)C(=O)N[C@@H](Cc3cccc(O)c3)C(=O)N3CCC[C@H](N3)C(=O)O1)[C@H](C)[C@H](O)[C@@H]2C (stereo partly drawn)
2,270,CC[C@H]1C[C@H](C)[C@@]2(NC1=O)O[C@@H](C[C@H](O)[C@@H](C)CCCCCC(C)[C@@H]1CCCCC[C@H](O)[C@H](C)[C@@H](O)[C@@H](CCC(C)=O)C(=O)N[C@@H](C(C)C)C(=O)N[C@@H](Cc3ccccc3)C(=O)N3CCC[C@H](N3)C(=O)O1)[C@H](C)[C@H](O)[C@@H]2C (stereo partly drawn)
3,0.8,CCCC[C@H]1C(=O)N[C@@H](C(C)C)C(=O)N[C@@H](Cc2cccc(O)c2)C(=O)N2CCC[C@H](N2)C(=O)O[C@H](/C(C)=C/C=C/CC[C@H](C)[C@@H](O)C[C@@H]2O[C@@]3(NC(=O)[C@@H](CC)C[C@@H]3C)[C@@H](C)[C@@H](O)[C@H]2C)C/C=C/C=C/[C@H](O)[C@H](C)[C@H]1O
